Assay results as given in patent US5574043A, “Certain [1,2,5-thiadiazol-4-yl]-1-azabicyclo [3.2.1]octane derivatives and their pharmaceutical uses” (Novo Nordisk A/S, priority 1995, dated 1996).
Where a name gives a salt, the structure may show the parent alone. One block for each molecule: values may come before it.

Molecular target: muscarinic acetylcholine receptors
Assay: Inhibition of specific binding of 3H-Oxotremorine-M (OXO BINDING) in vitro, rat cortex
Parameters: species or system male Wistar rats
Details: rat cortex homogenate, 3H-Oxotremorine 1.0 nM, 30 min at 25° C., pH 7.4
From the text: The pharmacological properties of the compounds of the invention can be illustrated by determining their capability to inhibit the specific binding of ^3 H-Oxotremorine-M (^3 H-Oxo). Birdsdall N. J. M., Hulme E. C., and Burgen A. S. V. (1980). "The Character of Muscarinic Receptors in Different Regions of the Rat Brain". Proc. Roy. Soc. London (Series B) 207,1.
^3 H-Oxo labels muscarinic receptor in the CNS (with a preference for agonist domains of the receptors). Three different sites are labelled by ^3 H-Oxo. […] Using the present experimental conditions only the high and medium affinity sites are determined.
The inhibitory effects of compounds on ^3 H-Oxo binding reflects the affinity for muscarinic acetylcholine receptors.
All preparations are performed at 0°-4° C. unless otherwise indicated. Fresh cortex (0.1-1 g) from male Wistar rats (150-250 g) is homogenized for 5-10 s in 10 ml 20 mM Hepes pH: 7.4, with an Ultra-Turrax homogenizer. The homogenizer, is rinsed with 10 ml of buffer and the combined suspension centrifuged for 15 min at 40,000×g. The pellet is washed three times with buffer. In each step the pellet is homogenized as before in 2×10 ml of buffer and centrifuged for 10 min at 40,000×g.
The final pellet is homogenized in 20 mM Hepes pH: 7.4 (100 ml per g of original tissue) and used for binding assay. Aliquots of 0.5 ml is added 25 μl of test solution and 25 μl of ^3 H-Oxotremorine (1.0 nM, final concentration) mixed and incubated for 30 min at 25° C. Non-specific binding is determined in triplicate using arecoline (1 μg/ml, final concentration) as the test substance. After incubation samples are added 5 ml of ice-cold buffer and poured directly onto Whatman GF/C glass fibre filters under suction and immediately washed 2 times with 5 ml of ice-cold buffer. The amount of radioactivity on the filters are determined by conventional liquid scintillation counting. Specific binding is total binding minus non specific binding.
Test substances are dissolved in 10 ml water (if necessary heated on a steam bath for less than 5 minutes) at a concentration of 2.2 mg/ml.
The test value will be given as IC50 (the concentration (ng/ml) of the test substance which inhibits the specific binding of ^3 H-Oxo by 50%).
IC50 =(applied test substance concentration) [formula] where Co is specific binding in control assays and Cx is the specific binding in the test assay. (The calculations assume normal mass-action kinetics).

Structure (SMILES): Clc1nsnc1C1(Cl)CN2CCC1CC2.O=C(O)C(=O)O (centres unmarked) [Compound 1, 3-Chloro-3-(3-chloro-1,2,5-thiadiazol-4-yl)-1-azabicyclo[2.2.2]-octane oxalate]
Inhibition in vitro OXO BINDING IC50: 156 ng/mL

Structure (SMILES): Clc1nsnc1C12CCCN(CC1)C2.O=C(O)C(=O)O (centres unmarked) [Compound 67, 5-(3-Chloro-1,2,5-thiadiazol-4-yl)-1-azabicyclo[3.2.1]octane oxalate]
Inhibition in vitro OXO BINDING IC50: 0.43 ng/mL

Inhibition in vitro OXO BINDING IC50: 1.9 ng/mL
Structure (SMILES): c1ccc(CCCSc2nsnc2[C@@H]2CN3CC[C@H]2C3)cc1 (relative stereo) [Compound 35, Endo-3-(3-(3-phenylpropylthio)-1,2,5-thiadiazol-4-yl)-1-azabicyclo[2.2.1]heptane oxalate]

Structure (SMILES): CCCSc1nsnc1[C@@H]1CN2CCC[C@@H]1C2 (single isomer, unassigned) [Compound 114, (-)-Exo-6-(3-propylthio-1,2,5-thiadiazol-4-yl)-1-azabicyclo[3.2.1]octane (-) D-tartrate]
Inhibition in vitro OXO BINDING IC50: 0.15 ng/mL

Structure (SMILES): N#CCSc1nsnc1[C@H]1CN2CCC[C@H]1C2 (relative stereo) [Compound 79, Exo-6-(3-cyanomethylthio-1,2,5-thiadiazol-4-yl)-1-azabicyclo[3.2.1]octane oxalate]
Inhibition in vitro OXO BINDING IC50: 0.50 ng/mL

Structure (SMILES): CCCOc1nsnc1C1CN2CCC1CC2.O=C(O)/C=C/C(=O)O (centres unmarked) [Compound 10, 3-(3-Propoxy-1,2,5-thiadiazol-4-yl)-1-azabicyclo[2.2.2]octane fumarate]
Inhibition in vitro OXO BINDING IC50: 1.7 ng/mL

Structure (SMILES): CCCCSc1nsnc1[C@H]1CN2CCC[C@H]1C2 (relative stereo) [Compound 30, Exo-6-(3-butylthio-1,2,5-thiadiazol-4-yl)-1-azabicyclo[3.2.1]octane oxalate]
Inhibition in vitro OXO BINDING IC50: 0.13 ng/mL

Structure (SMILES): O=C(O)/C=C/C(=O)O.c1ccc(CCCSc2nsnc2C2CN3CCC2CC3)cc1 (centres unmarked) [Compound 44, 3-(3-(3-Phenylpropylthio)-1,2,5-thiadiazol-4-yl)-1-azabicyclo[2.2.2]octane fumarate]
Inhibition in vitro OXO BINDING IC50: 4.7 ng/mL

Inhibition in vitro OXO BINDING IC50: 2.6 ng/mL
Structure (SMILES): CC(C)CCCSc1nsnc1[C@H]1CN2CCC[C@H]1C2 (relative stereo) [Compound 76, Exo-6-(3-isohexylthio-1,2,5-thiadiazol-4-yl)-1-azabicyclo[3.2.1]octane oxalate]

Structure (SMILES): CCCSc1nsnc1[C@H]1CN2CCC[C@@H]1C2 (relative stereo) [Compound 57, Endo-6-(3-propylthio-1,2,5-thiadiazol-4-yl)-1-azabicyclo[3.2.1]octane oxalate]
Inhibition in vitro OXO BINDING IC50: 4.6 ng/mL

Structure (SMILES): N#CCSc1nsnc1C1CN2CCC1CC2.O=C(O)C(=O)O (centres unmarked) [Compound 103, 3-(3-Cyanomethylthio-1,2,5-thiadiazol-4-yl)-1-azabicyclo[2.2.2]octane oxalate]
Inhibition in vitro OXO BINDING IC50: 0.92 ng/mL

Structure (SMILES): CCCSc1nsnc1[C@@H]1CN2CCC[C@@H]1C2 (single isomer, unassigned) [Compound 113, (+)-Exo-6-(3-propylthio-1,2,5-thiadiazol-4-yl)-1-azabicyclo[3.2.1]octane (+) L-tartrate]
Inhibition in vitro OXO BINDING IC50: 0.26 ng/mL

Structure (SMILES): CCCCSc1nsnc1[C@@H]1CN2CC[C@H]1C2 (relative stereo) [Compound 36, Endo-3-(3-butylthio-1,2,5-thiadiazol-4-yl)-1-azabicyclo[2.2.1]heptane fumarate]
Inhibition in vitro OXO BINDING IC50: 0.82 ng/mL

Structure (SMILES): N#Cc1ccc(CSc2nsnc2[C@H]2CN3CCC[C@@H]2C3)cc1 (relative stereo) [Compound 28, Endo-6-(3-(4-cyanobenzylthio)-1,2,5-thiadiazol-4-yl)-1-azabicyclo[3.2.1]octane oxalate]
Inhibition in vitro OXO BINDING IC50: 1.9 ng/mL

Structure (SMILES): N#CCCSc1nsnc1[C@H]1CN2CCC[C@@H]1C2 (relative stereo) [Compound 90, Endo-6-(3-(2-cyanoethylthio)-1,2,5-thiadiazol-4-yl)-1-azabicyclo[3.2.1]octane oxalate]
Inhibition in vitro OXO BINDING IC50: 3.3 ng/mL

Inhibition in vitro OXO BINDING IC50: 7.5 ng/mL
Structure (SMILES): C=CCCCCSc1nsnc1[C@H]1CN2CCC[C@@H]1C2 (relative stereo) [Compound 18, Endo-6-(3-(5-hexenylthio)-1,2,5-thiadiazol-4-yl)-1-azabicyclo[3.2.1]octane oxalate]

Structure (SMILES): CCCCCCSc1nsnc1C1CN2CCC1CC2.O=C(O)/C=C/C(=O)O (centres unmarked) [Compound 14, 3-(3-Hexylthio-1,2,5-thiadiazol-4-yl)-1-azabicyclo[2.2.2]octane fumarate]
Inhibition in vitro OXO BINDING IC50: 4.8 ng/mL

Structure (SMILES): CCCCCCSc1nsnc1C12CCCN(CC1)C2.O=C(O)C(=O)O (centres unmarked) [Compound 68, 5-(3-Hexylthio-1,2,5-thiadiazol-4-yl)-1-azabicyclo[3.2.1]octane oxalate]
Inhibition in vitro OXO BINDING IC50: 0.69 ng/mL

Structure (SMILES): COc1nsnc1C1=C(Cl)C2CCCN(C1)C2.O=C(O)C(=O)O (centres unmarked) [Compound 64, 4-Chloro-3-(3-methoxy-1,2,5-thiadiazol-4-yl)-1-azabicyclo[3.3.1]non-3-ene oxalate]
Inhibition in vitro OXO BINDING IC50: 8.2 ng/mL

Structure (SMILES): Clc1nsnc1[C@H]1CN2CC[C@@H]1C2 (relative stereo) [Compound 22, Endo-3-(3-chloro-1,2,5-thiadiazol-4-yl)-1-azabicyclo[2.2.1]heptane oxalate]
Inhibition in vitro OXO BINDING IC50: 3.4 ng/mL

Structure (SMILES): CCCCSc1nsnc1[C@@H]1CN2CCC[C@@H]1C2 (single isomer, unassigned) [Compound 112, (-)-Exo-6-(3-butylthio-1,2,5-thiadiazol-4-yl)-1-azabicyclo[3.2.1]octane (-) D-tartrate]
Inhibition in vitro OXO BINDING IC50: 0.19 ng/mL

Structure (SMILES): CCCCCCOc1nsnc1C1(OCCCCCC)CN2CCC1CC2.O=C(O)C(=O)O (centres unmarked) [Compound 6, 3-Hexyloxy-3-(3-hexyloxy-1,2,5-thiadiazol-4-yl)-1-azabicyclo[2.2.2]octane oxalate]
Inhibition in vitro OXO BINDING IC50: > 300 ng/mL

Inhibition in vitro OXO BINDING IC50: 0.45 ng/mL
Structure (SMILES): c1ccc(OCCSc2nsnc2[C@H]2CN3CCC[C@H]2C3)cc1 (relative stereo) [Compound 133, Exo-6-(3-(2-phenoxyethylthio)-1,2,5-thiadiazol-4-yl)-1-azabicyclo[3.2.1]octane oxalate]

Structure (SMILES): O=C(O)/C=C/C(=O)O.c1nsnc1C1CN2CCC1CC2 (centres unmarked) [Compound 132, 3-(1,2,5-Thiadiazol-3-yl)-1-azabicyclo[2.2.2]octane fumarate]
Inhibition in vitro OXO BINDING IC50: 0.96 ng/mL

Structure (SMILES): CSc1nsnc1[C@@H]1CN2CCC[C@H]1C2 (relative stereo) [Compound 85, Endo-6-(3-methylthio-1,2,5-thiadiazol-4-yl)-1-azabicyclo[3.2.1]octane oxalate]
Inhibition in vitro OXO BINDING IC50: 7.2 ng/mL

Structure (SMILES): FC(F)(F)C(F)(F)C(F)(F)COc1nsnc1[C@@H]1CN2CCC[C@@H]1C2 (relative stereo) [Compound 116, Exo-6-(3-(2,2,3,3,4,4,4-heptafluorobutyloxy)-1,2,5-thiadiazol-4-yl)-1-azabicyclo[3.2.1]octane oxalate]
Inhibition in vitro OXO BINDING IC50: 1.4 ng/mL

Structure (SMILES): O=C(O)/C=C/C(=O)O.c1csc(CCCOc2nsnc2C2CN3CCC2CC3)c1 (centres unmarked) [Compound 110, 3-(3-(3-(2-Thienyl)propoxy)-1,2,5-thiadiazol-4-yl)-1-azabicyclo[2.2.2]octane fumarate]
Inhibition in vitro OXO BINDING IC50: 1.1 ng/mL

Structure (SMILES): COc1nsnc1C1=CC2CCCN(C1)C2.O=C(O)C(=O)O (centres unmarked) [Compound 96, 3-(3-Methoxy-1,2,5-thiadiazol-4-yl)-1-azabicyclo[3.3.1]non-3-ene oxalate]
Inhibition in vitro OXO BINDING IC50: 0.3 ng/mL

Structure (SMILES): CCCCSc1nsnc1C1CN2CCC1CC2.O=C(O)C(O)C(O)C(=O)O (single isomer, unassigned) [Compound 56, (+) 3-(3-Butylthio-1,2,5-thiadiazol-4-yl)-1-azabicyclo[2.2.2]octane (-)D-tartrate]
Inhibition in vitro OXO BINDING IC50: 0.14 ng/mL

Structure (SMILES): CC(C)CCOc1nsnc1C1CN2CCC1CC2.O=C(O)C(=O)O (centres unmarked) [Compound 51, 3-(3-Isopentyloxy-1,2,5-thiadiazol-4-yl)-1-azabicyclo[2.2.2]octane oxalate]
Inhibition in vitro OXO BINDING IC50: 0.89 ng/mL

Inhibition in vitro OXO BINDING IC50: 0.39 ng/mL
Structure (SMILES): CCCCCCSc1nsnc1[C@H]1CN2CCC[C@H]1C2 (relative stereo) [Compound 29, Exo-6-(3-hexylthio-1,2,5-thiadiazol-4-yl)-1-azabicyclo[3.2.1]octane oxalate]

Inhibition in vitro OXO BINDING IC50: 0.32 ng/mL
Structure (SMILES): CCCCCOc1nsnc1[C@@H]1CN2CCC[C@@H]1C2 (relative stereo) [Compound 121, Exo-6-(3-pentyloxy-1,2,5-thiadiazol-4-yl)-1-azabicyclo[3.2.1]octane oxalate]
